Reference: patent publication US20100249071A1, “Modulators of S1P and Methods of Making And Using” (Exelixis, Inc., priority 2009, published 2010)

Key:
[1] = molecular target: T1, hS1P1R (hEdg1) membrane protein (Homo sapiens, UniProt P21453); assay: hS1P1R GTPγS binding assay (Assay 3a); format: biochemical
T1 construct: purchased Lonza
Procedure, shortened: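 Membranes (4 μg) expressing hS1P1R incubated 1 h at room temperature with 30 μM GDP, 0.1 nM [^35S]GTPγS, 0.25% fatty acid free BSA and serially diluted agonist in Tris-HCl pH 7.9/NaCl/MgCl2/EGTA buffer. Bound [^35S]GTPγS captured on WGA SPA beads (further 1 h) and counted.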

S1P1 = molecular target: T2, S1P1 (Homo sapiens, UniProt P21453); assay: Tango β-arrestin recruitment assay in U2OS cells (Assay 2b); format: cell-based; settings: read-out: Assay 2b EC50
T2 construct: host or cells: U2OS
Procedure, shortened: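 In this agonist-mode Tango assay, U2OS cells carrying S1P1 and the reporter were serum-starved 48 h, then exposed overnight at 37 °C to compound (10 points, 3-fold, top 1 μM, 1% DMSO). β-Lactamase F460/F530 ratio was normalized to 1 μM S1P, and EC50 was fitted.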

[2] = molecular target: T3, hS1PR5 (hEdg8) membrane protein (Homo sapiens, UniProt Q9H228); assay: hS1P5R GTPγS binding assay (Assay 4); format: biochemical
T3 construct: expressed in transfected cells; host or cells: CHO
Procedure, shortened: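 Membranes (5 μg) from CHO cells expressing hS1PR5, incubated 1 h at room temperature with 30 μM GDP, 0.1 nM [35S]GTPγS, 0.25% fatty acid free BSA and serially diluted compound in pH 7.9 Tris buffer with MgCl2. WGA SPA beads added for another 1 h, then bound [35S]GTPγS counted by scintillation.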

S1P3 = molecular target: T4, S1P3 (Homo sapiens, UniProt Q99500); assay: S1P3 Tango β-arrestin recruitment assay in HEK293 cells (Assay 5); format: cell-based; settings: read-out: Assay 5 EC50
T4 construct: host or cells: HEK293 (transient transfection)
Procedure, shortened: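 HEK293 cells transiently expressing S1P3 fused via TEV-cleavable linker to tTA, with β-arrestin2–TEV, treated 16-18 h at 37 °C with compounds (top 10 μM, 10-point 3-fold, 1% DMSO). Luciferase reporter luminescence normalised to DMSO background and 5 μM S1P control as percent activity; EC50 from concentration-response curves.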

circulating lymphocytes = assay: Lymphocyte PD assay in rats; format: in vivo, rat; settings: 24 hours after oral single dose at 3 mg/kg, Female CD rats (Sprague Dawley), compared to vehicle-only group
Procedure: Suppression of circulating lymphocytes was assessed as a PD endpoint in jugular vein canulated Sprague Dawely (SD) rats 6-8 weeks of age and weighing approximately 200 g (Taconic Farms, Germantown, N.Y.). Prior initiating a study, rats were acclimated to the vivarium facility (12 h light cycle, 12 h dark cycle) for a minimum of 2 days. During a study, animals were provided food and water ad libitum and housed in a room conditioned at 70-75° F. and 60% relative humidity. All animals were examined daily for health assessment.
The Compound of the Invention were formulated and animals was dosed at a volume of 4 mL/kg. At indicated timepoints, whole blood was collected via jugular vein canulas into EDTA-coated tubes and hematology analysis was performed on an Abbott Cell-Dyn 3700 hematology analyzer. Readouts included white blood cells (total, differential, and % of total), neutrophils, lymphocytes, monocytes, eosinophils, basophils, RBC, HGB, hematocrit, mean corpuscule volume, mean corpuscule HGB concentration, RBC distribution width, platelets, and mean platelet volume.

T3 sequence (Q9H228 whole entry): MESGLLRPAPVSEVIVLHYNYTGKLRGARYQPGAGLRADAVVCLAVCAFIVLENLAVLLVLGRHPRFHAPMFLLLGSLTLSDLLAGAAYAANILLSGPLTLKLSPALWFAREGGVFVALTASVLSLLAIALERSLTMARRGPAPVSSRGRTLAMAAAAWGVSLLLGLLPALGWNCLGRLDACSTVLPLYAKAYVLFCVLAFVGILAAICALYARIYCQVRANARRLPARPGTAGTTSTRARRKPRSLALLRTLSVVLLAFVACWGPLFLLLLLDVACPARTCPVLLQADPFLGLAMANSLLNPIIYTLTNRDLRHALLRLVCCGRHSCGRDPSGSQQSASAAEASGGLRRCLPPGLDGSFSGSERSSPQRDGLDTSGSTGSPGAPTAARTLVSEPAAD
T2 sequence (P32121 whole entry): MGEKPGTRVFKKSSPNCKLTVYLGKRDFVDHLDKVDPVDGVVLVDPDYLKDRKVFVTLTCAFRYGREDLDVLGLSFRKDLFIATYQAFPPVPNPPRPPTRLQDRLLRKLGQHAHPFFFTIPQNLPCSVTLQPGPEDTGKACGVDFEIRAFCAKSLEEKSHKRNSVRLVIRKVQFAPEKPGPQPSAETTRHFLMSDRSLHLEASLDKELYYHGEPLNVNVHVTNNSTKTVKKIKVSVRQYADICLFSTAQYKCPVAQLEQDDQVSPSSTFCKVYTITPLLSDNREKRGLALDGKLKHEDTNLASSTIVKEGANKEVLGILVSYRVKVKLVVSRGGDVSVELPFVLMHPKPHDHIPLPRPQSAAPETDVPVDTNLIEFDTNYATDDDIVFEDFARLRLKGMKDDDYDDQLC
T2 sequence (P21453 whole entry): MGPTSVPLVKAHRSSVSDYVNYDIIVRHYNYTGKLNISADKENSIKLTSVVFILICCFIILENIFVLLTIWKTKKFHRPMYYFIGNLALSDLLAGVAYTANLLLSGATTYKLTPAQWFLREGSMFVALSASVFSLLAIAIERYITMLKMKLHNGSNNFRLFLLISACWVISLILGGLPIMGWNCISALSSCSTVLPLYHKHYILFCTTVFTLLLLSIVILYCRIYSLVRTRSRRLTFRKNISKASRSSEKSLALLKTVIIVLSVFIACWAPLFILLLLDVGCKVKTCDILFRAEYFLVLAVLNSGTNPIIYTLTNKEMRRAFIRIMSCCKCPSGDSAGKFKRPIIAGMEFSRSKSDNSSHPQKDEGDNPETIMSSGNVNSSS
T4 sequence (P32121 whole entry): as the sequence (P32121 whole entry) above
T4 sequence (Q99500 whole entry): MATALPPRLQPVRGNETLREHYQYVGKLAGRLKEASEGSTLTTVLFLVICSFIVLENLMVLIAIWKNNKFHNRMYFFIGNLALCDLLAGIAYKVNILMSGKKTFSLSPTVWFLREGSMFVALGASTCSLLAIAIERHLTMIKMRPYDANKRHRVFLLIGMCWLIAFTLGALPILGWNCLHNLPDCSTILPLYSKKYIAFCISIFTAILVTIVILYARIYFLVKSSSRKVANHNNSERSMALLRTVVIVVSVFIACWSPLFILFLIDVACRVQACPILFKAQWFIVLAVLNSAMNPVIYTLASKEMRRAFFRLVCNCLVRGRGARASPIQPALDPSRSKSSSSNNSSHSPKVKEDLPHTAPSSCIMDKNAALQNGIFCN
T1 sequence (P21453 whole entry): as the sequence (P21453 whole entry) above

`CC(C)Oc1ccc(-c2nnc(-c3cc(F)c(OC[C@H](N)CO)cc3Cl)s2)cc1Br` [Entry 2, (2R)-2-amino-3-{[4-(5-{3-bromo-4-[(1-methylethyl)oxy]phenyl}-1,3,4-thiadiazol-2-yl)-5-chloro-2-fluorophenyl]oxy}propan-1-ol] was tested, and the EC50 [1] was no more than 10 nM, the EC50 (S1P1) was 10 to 50 nM and the EC50 [2] was 10 to 50 nM. For the same molecule, the EC50 (S1P3) was greater than 10000 nM and the “Lymphocyte Counts (p < 0.05)” value (circulating lymphocytes) was −93%.
